Source: the NIST ThermoML archive (doi:10.1016/j.fluid.2010.01.026)
± gives the expanded uncertainty stated by the source.

Conditions: 293.15 K; 101.33 kPa; Liquid; Vibrating tube method

CCCCCCCC[n+]1ccn(C)c1.F[P-](F)(F)(F)(F)F [1-octyl-3-methylimidazolium hexafluorophosphate]
mass density: 1234.55 ± 8.3 kg/m3
